# Data as given in patent publication US20220062255A1 (PRILENIA NEUROTHERAPEUTICS LTD., priority 2016, published 2022).
# Several values for one entry are separate records, joined by “and”; a condition that tells them apart may be missing. Identical values can stand only once. Like-named read-outs stand apart in the source and are kept apart here.
# What was measured:
# [1] = biological target: T1, Sigma-1 Receptor (S1R) (Homo sapiens, UniProt Q99720); assay: In-vitro binding assay, Sigma-1 receptor; conditions: Cheng Prusoff; Eurofins Panlabs; source Johnston et al. 2019 and NC20-PHARM-2
# T1 construct: Eurofins Panlabs Taiwan; Ltd. (performed the assay)
# Procedure: (§1) In-vitro binding assays performed at Eurofins Panlabs Taiwan. Ltd. Specific ligand binding was determined in the presence of an excess of unlabelled ligand.
# [2] = biological target: T2, Sigma-2 receptor (S2R) (Homo sapiens, UniProt Q5BJF2); assay: In-vitro binding assay, Sigma-2 receptor; conditions: Cheng Prusoff; Eurofins Panlabs; source Johnston et al. 2019 and NC20-PHARM-2
# T2 construct: Eurofins Panlabs Taiwan; Ltd. (performed the assay)
# Procedure: as §1
# [3] = tested on: BDNF secretion from B104 neuroblastoma cells; assay: BDNF in-situ ELISA, B104 neuroblastoma cells; format: cell-based, rat; conditions: together with pridopidine
# [4] = tested on: Retinal Ganglion Cells (RGCs); conditions: for RGC Loss (%): day 41, OD (OHT) vs OS eye, mean±SEM, DDW control 43±6%; for RGC neuroprotection (%): vs DDW control
# Procedure: In this model, sclerosis of the aqueous veins via retrograde introduction of hypertonic saline increases intraocular pressure (IOP). Hypertonic saline injection (HSI) was performed on day 0 and day 7 into the episcleral veins of the right eye of pigmented Brown Norway. Rats were sedated with ketamine and xylazine (40-80 and 5-10 mg/kg, respectively), kept warm and eyes moist to avoid desiccation during the procedure. Eye surface was treated with erythromycin (0.5%). On Days 0 and 7, hypertonic saline solution (250 μL, NaCl, 1.8-2.0M) was injected into the limbal vascular plexus via different episcleral veins in the OHT eye. For IOP measurement, corneas were anaesthetized with 0.5% proparacaine HCl ophthalmic solution and then IOP measured using a Tono-Pen Vet. Ten repeated readings were averaged from each eye. […] Over the course of the study, animals were clinically evaluated daily, and IOP and body weight measured weekly (FIG. 1).
# The number of RGCs was quantified using immunofluorescent staining for the RGC marker brain-specific homeobox/POU domain protein 3A (Brn-3a), followed by image analysis. Eyes were immediately enucleated following CO2 euthanization and fixed in paraformaldehyde (PFA, 4%) at 4° C. for 24 hours, then dissected in PBS. Retinas were permeabilized in PBS+0.5% Triton X-100 for 15 minutes, frozen at −80° C. for 15 minutes, then rinsed in PBS-0.5% Triton. […] Four radial cuts were made in the retina and it was flat-mounted. Two regions of interest (medial and distal) were acquired in each quadrant (FIG. 3) with fluorescent microscopy, and RGCs counted using ImageJ.
# The percent of RGC loss was calculated by comparing the number of RGC counts per retina in the OD eye to that in the OS eye from the same animal. […] RGC neuroprotection (%) in each animal was calculated as following: [100×((1−RGC Loss (%)/Average RGC Loss (%) in Control group))]. […] Representative images of RGC staining can be seen in FIG. 5.
# [5] = tested on: laser coagulation (LC) model of experimental glaucoma; conditions: for Area under curve (AUC) of IOP, Total Area: lasered eyes, vehicle 272, contralateral control 185
# Procedure: (§2) Unilateral induction of IOP elevation was performed twice, at day 0 and day 7. IOP increase was induced by 532 nm diode laser (Oculight® TX; Iridex) photocoagulation of episcleral veins, as previously described. IOP was measured with a TonoLab tonometer.
# (§3) IOP was measured at baseline, and after laser photocoagulation on days 1, 4, 7, 8, and 14 (FIG. 10).
# [6] = tested on: RGCs; conditions: day 14; for number of RGCs per retinal area, Control eye, Mean: contralateral eye; for RGC Difference % (decrease, lasered vs control eye): vehicle 16.7%
# Procedure: In Wistar rats, the laser coagulation (LC) model of experimental glaucoma was utilized.
# as §2, §3
# On day 14, rats were sacrificed by transcardial perfusion, first with 0.9% NaCl solution, then with 4% PFA in 0.1M phosphate buffer, pH 7.4. Eyes and optic nerves were collected for immunohistochemical analysis. The number of RGCs was quantified using immunofluorescent staining for RNA-binding protein with multiple splicing (RBPMS), an RGC-specific marker, and DAPI nuclear stain followed by stereological analysis of the entire retina (FIG. 11).
# [7] = tested on: optic nerve axons; conditions: for Number of optic nerve axons, Lasered eye, Mean / Number of optic nerve axons, Control eye, Mean / loss of optic nerve axons, Difference % (LC eye vs control eye): day 14; for Number of optic nerve axons, Control eye, Mean: contralateral eye; for loss of optic nerve axons, Difference % (LC eye vs control eye): vehicle 27.5% in text; for Axonal protection (%): vs vehicle group
# Procedure: Neuroprotective preservation of visual function in glaucoma and other optic neuropathies depends not only on preservation of cell bodies, but also on maintaining connectivity between the eye and the brain. Connectivity is preserved by protecting RGC axons which make up the optic nerve. […] Unilateral induction of IOP elevation was performed twice, at day 0 and day 7. IOP increase was induced by 532 nm diode laser (Oculight® TX; Iridex) photocoagulation of episcleral veins, as previously described. IOP was measured with a TonoLab tonometer.
# IOP was measured at baseline, and after laser photocoagulation on days 1, 4, 7, 8, and 14.
# On day 14, rats were sacrificed by transcardial perfusion, first with 0.9% NaCl solution, then with 4% PFA in 0.1M phosphate buffer, pH 7.4. Eyes and optic nerves were collected for immunohistochemical analysis.
# Optic nerves were postfixed in 4% PFA (in 0.1M phosphate buffer, pH 7.4), placed in 1% osmium, dehydrated in ascending alcohol concentrations, and placed in 1% uranyl acetate in 100% ethanol for 1 hour. Optic nerves were embedded in epoxy resin mixture at 60° C. for 48 hours and 1 μm sections prepared. Axon number was estimated using stereology.
# High IOPs immediately after LC procedure could be associated with retinal ischemia, and low IOP's could indicate failure to establish the model.
# [8] = tested on: dry AMD; conditions: long-term oral administration; paper example
# Description: The pathological correlation for the decline of visual acuity is the progressive expansion of the degenerated area of the retina (i.e., geographic atrophy), specifically in the macula.
# [9] = tested on: RGCs; conditions: topical to the HSI treated eye, paper example
# [10] = tested on: glaucoma; conditions: long-term oral administration; paper example
# [11] = tested on: wet AMD; conditions: long-term oral administration; paper example
# [12] = tested on: retinitis pigmentosa; conditions: periodic oral administration; paper example
# [13] = tested on: optic neuropathy; conditions: long-term oral administration; paper example
# [14] = tested on: BDNF secretion from B104 neuroblastoma cells; conditions: in-situ ELISA; Geva, et al. 2016; cited from earlier work
# T2 sequence (Q5BJF2 whole entry, species assumed): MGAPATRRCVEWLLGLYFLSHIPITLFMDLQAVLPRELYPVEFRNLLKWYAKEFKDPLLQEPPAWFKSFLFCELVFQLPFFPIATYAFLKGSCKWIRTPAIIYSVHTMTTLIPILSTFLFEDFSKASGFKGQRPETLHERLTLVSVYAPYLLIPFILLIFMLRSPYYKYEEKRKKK
# T1 sequence (Q99720 whole entry, species assumed): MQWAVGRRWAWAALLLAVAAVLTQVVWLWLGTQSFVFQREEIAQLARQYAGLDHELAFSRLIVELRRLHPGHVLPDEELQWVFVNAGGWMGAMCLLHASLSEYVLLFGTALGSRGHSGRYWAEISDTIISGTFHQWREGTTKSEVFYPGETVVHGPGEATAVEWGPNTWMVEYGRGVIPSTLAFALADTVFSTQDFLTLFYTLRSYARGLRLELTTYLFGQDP
compound,measurement,setting,value
CCCN1CCC(O)(c2cccc(S(C)(=O)=O)c2)CC1 [Compound 1],Ki,[1],370 nM
same,Ki,[2],> 100000 nM
same,effect with pridopidine on BDNF secretion,[3],synergistic effect
CCCN1CC[C@@H](c2cccc(S(C)(=O)=O)c2)[C@@H](O)C1 [Compound 4],Ki,[1],2900 nM
same,Ki,[2],> 100000 nM
same,effect with pridopidine on BDNF secretion,[3],synergistic effect
"CCCN1CCC(c2cccc(S(C)(=O)=O)c2)CC1 [Pridopidine, 4-(3-(Methylsulfonyl)phenyl)-1-propylpiperidine]",RGC Loss (%),[4]; 3 mg/kg oral daily,25±7% and 25%
same,RGC neuroprotection (%),[4]; 3 mg/kg oral daily,42%
same,RGC Loss (%),[4]; 30 mg/kg oral daily,21±6% and 21%
same,RGC neuroprotection (%),[4]; 30 mg/kg oral daily,50%
same,RGC Loss (%),[4]; 60 mg/kg oral daily,7±9% and 7%
same,RGC neuroprotection (%),[4]; 60 mg/kg oral daily,83%
same,"Area under curve (AUC) of IOP, Total Area",[5]; 3 mg/kg oral daily,255
same,"Area under curve (AUC) of IOP, Total Area",[5]; 30 mg/kg oral daily,289
same,"Area under curve (AUC) of IOP, Total Area",[5]; 60 mg/kg oral daily,295
same,effect on IOP of lasered eyes,"[5]; 3, 30 and 60 mg/kg oral daily, one-way ANOVA, P≥0.26",no difference in the IOP of lasered eyes
same,"number of RGCs per retinal area, Lasered eye, Mean",[6]; 3 mg/kg oral daily,1315
same,"number of RGCs per retinal area, Control eye, Mean",[6]; 3 mg/kg oral daily,1404
same,"RGC Difference % (decrease, lasered vs control eye)",[6]; 3 mg/kg oral daily,5.2%
same,"number of RGCs per retinal area, Lasered eye, Mean",[6]; 30 mg/kg oral daily,1336
same,"number of RGCs per retinal area, Control eye, Mean",[6]; 30 mg/kg oral daily,1444
same,"RGC Difference % (decrease, lasered vs control eye)",[6]; 30 mg/kg oral daily,7.7%
same,"number of RGCs per retinal area, Lasered eye, Mean",[6]; 60 mg/kg oral daily,1198
same,"number of RGCs per retinal area, Control eye, Mean",[6]; 60 mg/kg oral daily,1417
same,"RGC Difference % (decrease, lasered vs control eye)",[6]; 60 mg/kg oral daily,13.9%
same,"Number of optic nerve axons, Lasered eye, Mean",[7]; 3 mg/kg oral daily,358
same,"Number of optic nerve axons, Control eye, Mean",[7]; 3 mg/kg oral daily,394
same,"loss of optic nerve axons, Difference % (LC eye vs control eye)",[7]; 3 mg/kg oral daily,8.6%
same,Axonal protection (%),[7]; 3 mg/kg oral daily,69%
same,"Number of optic nerve axons, Lasered eye, Mean",[7]; 30 mg/kg oral daily,363
same,"Number of optic nerve axons, Control eye, Mean",[7]; 30 mg/kg oral daily,433
same,"loss of optic nerve axons, Difference % (LC eye vs control eye)",[7]; 30 mg/kg oral daily,15%
same,Axonal protection (%),[7]; 30 mg/kg oral daily,45%
same,"Number of optic nerve axons, Lasered eye, Mean",[7]; 60 mg/kg oral daily,365
same,"Number of optic nerve axons, Control eye, Mean",[7]; 60 mg/kg oral daily,395
same,"loss of optic nerve axons, Difference % (LC eye vs control eye)",[7]; 60 mg/kg oral daily,7.24% and 7.6%
same,Axonal protection (%),[7]; 60 mg/kg oral daily,74%
same,efficacy in dry AMD patients,[8],effective in treating human patients with dry AMD
same,viability of the RGCs and RGC loss,"[9]; groups 2, 3 and 4 vs group 1",significantly increases viability of the RGCs and reduces RCG loss
same,protection of RGC axons,[9],protects RGC axons
same,efficacy in glaucoma patients,[10],effective in treating human patients with glaucoma
same,efficacy in wet AMD patients,[11],effective in treating human patients with wet AMD
same,efficacy in retinitis pigmentosa patients,[12],effective in treating human patients with retinitis pigmentosa
same,efficacy in optic neuropathy patients,[13],effective in treating human patients with optic neuropathy
same,BDNF secretion in rat neuroblastoma cells,[14],dose dependent increase in BDNF secretion
